Columns and labels:
Format in all cases: in vivo
[1] = tested on: Green Peach Aphid (Myzus persicae); experiment: Bioassay on Green Peach Aphid (GPA), foliar spray on cabbage seedlings; conditions: 72 h, Table ABC, read-out: GPA rating
Procedure: Example B: Bioassays on Green Peach Aphid (Myzus Persicae, MYZUPE) (“GPA”) Certain molecules disclosed in this document were tested against GPA using procedures described in the following example. In the reporting of the results, the “GPA & YFM Rating Table” was used (See Table Section). Cabbage seedlings grown in 3-inch pots, with 2-3 small (3-5 cm) true leaves, were used as test substrate. The seedlings were infested with 20-50 GPA (wingless adult and nymph stages) one day prior to chemical application. Four pots with individual seedlings were used for each treatment. Test molecules (2 mg) were dissolved in 2 mL of acetone/methanol (1:1) solvent, forming stock solutions of 1000 ppm test molecule. The stock solutions were diluted 5× with 0.025% Tween 20 in water to obtain the solution at 200 ppm test molecule. A hand-held aspirator-type sprayer was used for spraying a solution to both sides of […] leaves until runoff. Reference plants (solvent check) were sprayed with the diluent only containing 20% by volume of acetone/methanol (1:1) solvent. Treated plants were held in a holding room for three days at approximately 25° C. and ambient relative humidity (RH) prior to grading. Evaluation was conducted by counting the number of live aphids per plant under a microscope. Percent Control was measured by using Abbott's correction formula (W. S. Abbott, “A Method of Computing the Effectiveness of an Insecticide” J. Econ. Entomol. 18 (1925), pp. 265-267) as follows. Corrected % Control=100*(X−Y)/X • where • X=No. of live aphids on solvent check plants and • Y=No. of live aphids on treated plants The results are indicated in the table entitled “Table ABC: Biological Results” (See Table Section).

[2] = tested on: Cabbage Looper (Trichoplusia ni); experiment: Bioassay on Cabbage Looper (CL), 128-well diet tray assay; conditions: Cabbage Looper, Table ABC, read-out: CL rating
Method in brief: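 Second-instar larvae, one to five per well, placed on artificial diet surface-treated with 50 μg/cm^2 compound in acetone-water, eight wells per compound. Held 5-7 days at 25° C, 14:10 light-dark; percent mortality per well averaged across wells.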

[3] = tested on: Beet Armyworm (Spodoptera exigua); experiment: Bioassay on Beet Armyworm (BAW), 128-well diet tray assay; conditions: Beet Armyworm, Table ABC, read-out: BAW rating
Method in brief: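 Second-instar larvae (one to five per well) placed on artificial diet surface-treated with 50 μg/cm^2 test molecule in 90:10 acetone-water, dried, eight wells per molecule. Held at 25° C, 14:10 light-dark, five to seven days; percent mortality recorded per well and averaged across the eight wells.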

[4] = tested on: Yellow Fever Mosquito (Aedes aegypti); experiment: Bioassay on Yellow Fever Mosquito (YFM) larvae, 96-well plate; conditions: Table ABC
Method in brief: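 About 1-day-old larvae in water with liver powder were added to wells holding compound from a 4000 ppm DMSO master diluted in 90:10 water:acetone. Plates covered and kept at room temperature for 3 days, then each well scored for mortality on a rating scale.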

SMILES	pest or weed control at 200 µg/mL [1] [%]	pest or weed control at 50 µg/cm2 [2] [%]	pest or weed control at 50 µg/cm2 [3] [%]	YFM rating [4]
O=C(NC1(C(=O)NCC(F)(F)F)CC1)c1ccc(/C(F)=C/C(c2cc(Cl)c(Cl)c(Cl)c2)C(F)(F)F)cc1C(F)(F)F (stereo not drawn) [F3, (Z)-4-(1,4,4,4-Tetrafluoro-3-(3,4,5-trichlorophenyl)but-1-en-1-yl)-N-(1-((2,2,2-trifluoroethyl)carbamoyl)cyclopropyl)-2-(trifluoromethyl)benzamide]	80 to 100	50 to 100	50 to 100	
C=CCc1c(Cl)cc(C(/C=C(\F)c2ccc(C(=O)N[C@H](C)C(=O)NCC(F)(F)F)c(C(F)(F)F)c2)C(F)(F)F)cc1Cl (stereo partly drawn) [F146, 4-((Z)-3-(4-Allyl-3,5-dichlorophenyl)-1,4,4,4-tetrafluorobut-1-en-1-yl)-N—((R)-1-oxo-1-((2,2,2-trifluoroethyl)amino)propan-2-yl)-2-(trifluoromethyl)benzamide]	0 to 80	50 to 100	50 to 100	B (More than 0-Less than 80)
O=C(N[C@@H]1CON(CC(F)(F)F)C1=O)c1ccc(/C(F)=C/C(c2cc(F)c(F)c(F)c2)C(F)(F)F)cc1C(F)(F)F (stereo partly drawn) [F155, N—((R)-3-Oxo-2-(2,2,2-trifluoroethyl)isoxazolidin-4-yl)-4-((Z)-1,4,4,4-tetrafluoro-3-(3,4,5-trifluorophenyl)but-1-en-1-yl)-2-(trifluoromethyl)benzamide]	80 to 100	50 to 100	50 to 100	A (80-100)
O=C(N[C@@H]1CON(CC(F)(F)F)C1=O)c1ccc(/C(F)=C/C(c2ccc(C(F)(F)F)c(Cl)c2)C(F)(F)F)cc1C(F)(F)F (stereo partly drawn) [F180, 4-((Z)-3-(3-Chloro-4-(trifluoromethyl)phenyl)-1,4,4,4-tetrafluorobut-1-en-1-yl)-N—((R)-3-oxo-2-(2,2,2-trifluoroethyl)isoxazolidin-4-yl)-2-(trifluoromethyl)benzamide]	80 to 100	50 to 100	50 to 100	
Cc1cc(C(/C=C(\F)c2ccc(C(=O)NC3(C(=O)NCC(F)(F)F)CC3)c(C(F)(F)F)c2)C(F)(F)F)cc(Cl)c1Cl (stereo not drawn) [PF15]		50 to 100	50 to 100	B (More than 0-Less than 80)
CN(CC(F)(F)F)C(=O)CNC(=O)c1ccc(/C(F)=C/C(c2ccc(Cl)c(F)c2)C(F)(F)F)cc1C(F)(F)F (stereo not drawn) [PF18, (Z)-4-(3-(4-Chloro-3-fluorophenyl)-1,4,4,4-tetrafluorobut-1-en-1-yl)-N-(2-(methyl(2,2,2-trifluoroethyl)amino)-2-oxoethyl)-2-(trifluoromethyl)benzamide]		50 to 100	50 to 100	B (More than 0-Less than 80)
C[C@@H](NC(=O)c1ccc(/C(F)=C/C(c2ccc(Cl)c(F)c2)C(F)(F)F)cc1C(F)(F)F)C(=O)NCC(F)(F)F (stereo partly drawn) [PF19, 4-((Z)-3-(4-Chloro-3-fluorophenyl)-1,4,4,4-tetrafluorobut-1-en-1-yl)-N—((R)-1-oxo-1-((2,2,2-trifluoroethyl)amino)propan-2-yl)-2-(trifluoromethyl)benzamide]		50 to 100	50 to 100	B (More than 0-Less than 80)
C[C@@H](NC(=O)c1ccc(/C(F)=C/C(c2ccc(Cl)c(F)c2)C(F)(F)F)cc1C(F)(F)F)C(=O)N(C)CC(F)(F)F (stereo partly drawn) [PF20, 4-((Z)-3-(4-Chloro-3-fluorophenyl)-1,4,4,4-tetrafluorobut-1-en-1-yl)-N—((R)-1-(methyl(2,2,2-trifluoroethyl)amino)-1-oxopropan-2-yl)-2-(trifluoromethyl)benzamide]		50 to 100	50 to 100	B (More than 0-Less than 80)
CN(CC(F)(F)F)C(=O)C1(NC(=O)c2ccc(/C(F)=C/C(c3ccc(Cl)c(F)c3)C(F)(F)F)cc2C(F)(F)F)CC1 (stereo not drawn) [PF22, (Z)-4-(3-(4-Chloro-3-fluorophenyl)-1,4,4,4-tetrafluorobut-1-en-1-yl)-N-(1-(methyl(2,2,2-trifluoroethyl)carbamoyl)cyclopropyl)-2-(trifluoromethyl)benzamide]		50 to 100	50 to 100	B (More than 0-Less than 80)
C[C@@H](NC(=O)c1ccc(/C(F)=C/C(c2ccc(Br)c(Cl)c2)C(F)(F)F)cc1C(F)(F)F)C(=O)NCC(F)(F)F (stereo partly drawn) [PF25]		50 to 100	50 to 100	B (More than 0-Less than 80)
C[C@@H](NC(=O)c1ccc(/C(F)=C/C(c2cc(Cl)cc(Br)c2)C(F)(F)F)cc1C(F)(F)F)C(=O)N(C)CC(F)(F)F (stereo partly drawn) [PF31, 4-((Z)-3-(3-Bromo-5-chlorophenyl)-1,4,4,4-tetrafluorobut-1-en-1-yl)-N—((R)-1-(methyl(2,2,2-trifluoroethyl)amino)-1-oxopropan-2-yl)-2-(trifluoromethyl)benzamide]		50 to 100	50 to 100	B (More than 0-Less than 80)
O=C(NC1(C(=O)NCC(F)(F)F)CC1)c1ccc(/C(F)=C/C(c2cc(Cl)cc(Br)c2)C(F)(F)F)cc1C(F)(F)F (stereo not drawn) [PF32, (Z)-4-(3-(3-Bromo-5-chlorophenyl)-1,4,4,4-tetrafluorobut-1-en-1-yl)-N-(1-((2,2,2-trifluoroethyl)carbamoyl)cyclopropyl)-2-(trifluoromethyl)benzamide]	0 to 80			
CN(CC(F)(F)F)C(=O)C1(NC(=O)c2ccc(/C(F)=C/C(c3cc(Cl)cc(Br)c3)C(F)(F)F)cc2C(F)(F)F)CC1 (stereo not drawn) [PF33, (Z)-4-(3-(3-Bromo-5-chlorophenyl)-1,4,4,4-tetrafluorobut-1-en-1-yl)-N-(1-(methyl(2,2,2-trifluoroethyl)carbamoyl)cyclopropyl)-2-(trifluoromethyl)benzamide]		50 to 100	50 to 100	B (More than 0-Less than 80)
CN(CC(F)(F)F)C(=O)CNC(=O)c1ccc(/C(F)=C/C(c2ccc(Cl)c(Br)c2)C(F)(F)F)cc1C(F)(F)F (stereo not drawn) [PF35, (Z)-4-(3-(3-Bromo-4-chlorophenyl)-1,4,4,4-tetrafluorobut-1-en-1-yl)-N-(2-(methyl(2,2,2-trifluoroethyl)amino)-2-oxoethyl)-2-(trifluoromethyl)benzamide]		50 to 100	50 to 100	B (More than 0-Less than 80)
C[C@@H](NC(=O)c1ccc(/C(F)=C/C(c2ccc(Cl)c(Br)c2)C(F)(F)F)cc1C(F)(F)F)C(=O)N(C)CC(F)(F)F (stereo partly drawn) [PF37, 4-((Z)-3-(3-Bromo-4-chlorophenyl)-1,4,4,4-tetrafluorobut-1-en-1-yl)-N—((R)-1-(methyl(2,2,2-trifluoroethyl)amino)-1-oxopropan-2-yl)-2-(trifluoromethyl)benzamide]		50 to 100	50 to 100	B (More than 0-Less than 80)
CN(CC(F)(F)F)C(=O)C1(NC(=O)c2ccc(/C(F)=C/C(c3ccc(Cl)c(Br)c3)C(F)(F)F)cc2C(F)(F)F)CC1 (stereo not drawn) [PF39, (Z)-4-(3-(3-Bromo-4-chlorophenyl)-1,4,4,4-tetrafluorobut-1-en-1-yl)-N-(1-(methyl(2,2,2-trifluoroethyl)carbamoyl)cyclopropyl)-2-(trifluoromethyl)benzamide]		50 to 100	50 to 100	B (More than 0-Less than 80)
O=C(CNC(=S)c1ccc(/C(F)=C/C(c2cc(Cl)c(Cl)c(Cl)c2)C(F)(F)F)cc1C(F)(F)F)NCC(F)(F)F (stereo not drawn) [PF82, (Z)-2-(4-(1,4,4,4-tetrafluoro-3-(3,4,5-trichlorophenyl)but-1-en-1-yl)-2-(trifluoromethyl)phenylthioamido)-N-(2,2,2-trifluoroethyl)acetamide]		50 to 100	50 to 100	A (80-100)
O=C(NCC(=S)NCC(F)(F)F)c1ccc(/C(F)=C/C(c2cc(Cl)c(Cl)c(Cl)c2)C(F)(F)F)cc1C(F)(F)F (stereo not drawn) [PF94, (Z)-4-(1,4,4,4-tetrafluoro-3-(3,4,5-trichlorophenyl)but-1-en-1-yl)-N-(2-thioxo-2-((2,2,2-trifluoroethyl)amino)ethyl)-2-(trifluoromethyl)benzamide]		50 to 100	50 to 100	A (80-100)

From patent US10251394B2, “Molecules having pesticidal utility, and intermediates, compositions, and processes, related thereto” (Dow AgroSciences LLC, priority 2016, dated 2019)
